Data from US20090298707A1, “SPARSE MATRIX SYSTEM AND METHOD FOR IDENTIFICATION OF SPECIFIC LIGANDS OR TARGETS” (priority 2008, published 2009).
“Also recorded” adds a separate entry of the source.

How the values were obtained:
[1] = tested on: M. luteus MS2; test: Pulldown binding assay, Langmuir isotherm fit, M. luteus; parameters: species or system Micrococcus luteus; settings: for Langmuir Affinity (Ka): association constant from Langmuir isotherm fit; for Monolayer Concentration (N): maximum surface concentration from Langmuir fit
Source text: (§1) To investigate whether the changes in the observed level of binding were due to changes in the affinities or avidities of the refined peptides for cell surfaces, binding curves were generated for selected peptides and fit to the Langmuir isotherm (where possible), the simplest model describing binding to surfaces (peptides showing either complex or nonspecific binding isotherms were excluded from this analysis).
(§2) Measurements were taken of the absorbance of the labeled peptide at 488 nm (the peak absorbance of the fluorescein label) before and after exposure to the cells. The amount of peptide bound was calculated by comparing the ratio of the final (Af) and initial (Ai) absorbances to the initial concentration (C0)[Cbound=C0(1−(Af/Ai))]. Bacterial surface area per sample was calculated using a stage micrometer to determine the average cell diameter for each species (1.0+/−0.1 μm for S. aureus AM1, 2.7+/−0.1 μm for M. luteus MS2), treating individual cells as discrete spheres. Average cell concentration per unit OD600 was calculated using a hemocytometer.
(§3) Plots were then generated of the amount of peptide bound per m^2 of bacterial surface area vs. the concentration of unbound peptide at equilibrium. Where possible, the resulting isotherms were fit to the Langmuir isotherm (P/A=(KaNCeq)/(1+KaCeq), where P/A represents the molar amount of peptide bound per unit of bacterial surface area, Ka is the association constant of the peptide with the bacterial surface (L/Mol), N is the maximum surface concentration (mol/m^2), and Ceq is the molar concentration of unbound peptide at equilibrium) (Calis et al. (1995) Pharm Res 12(7): 1072-1076). Data plots and curvefits were obtained using Kaleidagraph (Synergy Software).

[2] = tested on: diverse panel of various strains of bacteria; test: Specificity screen by fluorescence microscopy against a bacterial panel; assay type: binding; settings: bacteria other than S. aureus and M. luteus
Description: (§4) Peptide samples were prepared at a concentration of 25 μM for screening against a variety of organisms by exposing immobilized bacteria to labeled peptides. For bacterial cell binding assays, cells were grown overnight, washed, and immobilized in a polylysine-coated 96-well plate. Fluorescein-labeled peptide samples were applied to immobilized bacteria, incubated for 10 minutes and washed extensively to remove unbound peptide. Samples were visualized by fluorescence microscopy. For each peptide, both brightfield and fluorescence images were collected, and camera and microscope settings were not altered between images. The locations of cells and background regions were determined using the brightfield images; those regions were then selected in the fluorescence images for quantitation of pixel values for determination of relative fluorescence intensities (represented as bacterial fluorescence/background fluorescence) using the GNU Image Manipulation Program (The GIMP, see, e.g., www.gimp.org). […]
(§5) To examine the specificities of the peptides identified in this experiment, a diverse panel of various strains of bacteria was assembled, consisting of Lactobacillus casei, Escherichia coli, Enterococcus faecalis, Streptococcus mutans, Streptococcus mitis, Streptococcus gordonii, Pseudomonas aeruginosa, Klebsiella pneumoniae, Micrococcus luteus (strain MS2), Staphylococcus epidermidis, and two strains of Staphylococcus aureus: a methicillin/oxacillin-sensitive community isolate and our methicillin/oxacillin-resistant community isolate of (strain AM1). Peptides 3C and 4D from the original pilot library were screened for binding against these bacteria by fluorescence microscopy, and images were analyzed as before.

[3] = tested on: immobilized S. aureus cells; test: Fluorescence microscopy binding of labeled peptides to immobilized bacteria, S. aureus; parameters: species or system Staphylococcus aureus; settings: for Binding to S. aureus (fluorescent staining): 25 μM fluorescein-labeled peptide, 10 minutes, immobilized cells
Description: (§6) Peptide samples were prepared at a concentration of 25 μM for screening against a variety of organisms by exposing immobilized bacteria to labeled peptides. For bacterial cell binding assays, cells were grown overnight, washed, and immobilized in a polylysine-coated 96-well plate. Fluorescein-labeled peptide samples were applied to immobilized bacteria, incubated for 10 minutes and washed extensively to remove unbound peptide. Samples were visualized by fluorescence microscopy. For each peptide, both brightfield and fluorescence images were collected, and camera and microscope settings were not altered between images. The locations of cells and background regions were determined using the brightfield images; those regions were then selected in the fluorescence images for quantitation of pixel values for determination of relative fluorescence intensities (represented as bacterial fluorescence/background fluorescence) using the GNU Image Manipulation Program (The GIMP, see, e.g., www.gimp.org).
The following bacterial species and strains were used: Lactobacillus casei (strain), Escherichia coli (W3110), Enterococcus faecium (strain), Streptococcus mutans (UA140), Streptococcus mitis (ATCC 903), Streptococcus gordonii (NY101), Pseudomonas aeruginosa(strain K), Klebsiella pneumoniae (KAY2026), Myxococcus xanthus (Strains DK1622, wildtype, and difA, exopolysaccharide deficient^21), Micrococcus luteus (strain MS2, a community isolate), Staphylococcus epidermidis (strain), and Staphylococcus aureus(strains, and AM1, a methicillin/oxacillin-resistant community isolate).
For isolation of community-acquired S. aureus and M. luteus strains (strains MS2 and AM1), swabs were collected from the nostrils of several volunteers and streaked on Brain-Heart Infusion (BHI) agar and incubated at 37° C. overnight. Yellow colonies were isolated and typed (Microbial ID, Inc., Newark, Del.). Antibiotic resistance was assayed by plating on BHI in the presence of various antibiotics. Commercially available antibiotic susceptibility test disks were used to assay for oxacillin resistance (BD Biosciences), according to the manufacturer's instructions. Due to the difficulty of obtaining methicillin, oxacillin resistance was used as a proxy for methicillin resistance in isolated strains.^22
The peptides comprising these two refined libraries were synthesized, labeled, and screened against immobilized S. aureus cells exactly as for the original pilot library.
as §5

[4] = tested on: M. luteus; test: Fluorescence microscopy binding of labeled peptides to immobilized bacteria, M. luteus; parameters: species or system Micrococcus luteus; settings: 25 μM fluorescein-labeled peptide, immobilized cells
Description: as §4, §5

[5] = tested on: S. aureus AM1; test: Pulldown binding assay, Langmuir isotherm fit, S. aureus; parameters: species or system Staphylococcus aureus; settings: for Langmuir Affinity (Ka): association constant from Langmuir isotherm fit, fluorescein-labeled peptide 0-100 μM; for Monolayer Concentration (N): maximum surface concentration from Langmuir fit
Source text: as §1, §2, §3

[6] = tested on: Candida albicans cells (strain 4741); test: Pilot library binding to Candida albicans cells; settings: fluorescence image
Description: as §6
(§7) The use of this technology is not limited to bacterial surfaces.

[7] = tested on: Chinese Hamster Ovary (CHO) cells; test: Pilot library binding to CHO cells; settings: fluorescence image
Description: as §6, §7

Substance | Langmuir Affinity (Ka) [1] | Monolayer Concentration (N) [1] | Binding to the other bacteria of the panel [2] | Binding to S. aureus (fluorescent staining) [3] | Binding to immobilized S. aureus relative to peptides of the original pilot library ([3]; refined libraries, fluorescence images) | Binding to M. luteus (fluorescent staining) [4] | Langmuir Affinity (Ka) [5] | Monolayer Concentration (N) [5] | Binding to S. aureus (fluorescent staining) ([3]; listed as Pilot Library C3) | Binding to C. albicans [6] | Binding to CHO cells [7] | Binding to S. aureus (fluorescent staining) ([3]; listed as Pilot Library D4)
In-plane refinement 1B: in-plane refined library peptide, SEQ ID NO:50 (IVSYVITQL; synthetic in-plane refinement library peptide B1) | 2.4 ± 0.8 M^−1 × 10000 | 0.11 ± 0.02 Mol/m^2 × 0.0001 | no significant binding | strongest binding | enhanced binding | strongest binding |  |  |  |  |  | 
Pilot Library 3C: pilot library 9-mer, SEQ ID NO:23; became A1 of the in-plane matrix (SEQ ID NO:46) (LISYILTQL; synthetic pilot library peptide C3) | 4 ± 1 M^−1 × 10000 | 0.12 ± 0.02 Mol/m^2 × 0.0001 | significant levels of binding to several of the other bacteria tested; also recorded: significant binding to several strains | Binding was clearly seen; also recorded: binds well |  | Binding was clearly seen; also recorded: binds well | 5.6 ± 0.9 M^−1 × 10000 | 0.31 ± 0.2 Mol/m^2 × 0.0001 | some of the brightest unique staining |  |  | 
Pilot Library 3A: pilot library 9-mer, SEQ ID NO:11 (WWSYWWTQW; synthetic pilot library peptide A3) |  |  |  |  |  |  |  |  |  | binding | binding | 
Pilot Library 4D: pilot library 9-mer, SEQ ID NO:30; corner of the in-plane matrix (SEQ ID NO:61) (VAKDVAERV; synthetic pilot library peptide D4) | 5 ± 2 M^−1 × 10000 | 0.16 ± 0.02 Mol/m^2 × 0.0001 | significant levels of binding to several of the other bacteria tested; also recorded: significant binding to several strains | Binding was clearly seen |  | Binding was clearly seen | 5 ± 3 M^−1 × 10000 | 0.12 ± 0.3 Mol/m^2 × 0.0001 |  |  |  | some of the brightest unique staining
